Experimental data from patent publication US6984624B2, “Composition containing an iron complexing protein and a precursor of nitrogen monoxide metabolism and/or a chemical donor of nitrogen monoxide and uses thereof” (Isocell S.A., priority 2000, dated 2006).

Key:
Assay type in all cases: cell-based, human
[1] = tested on: Intestinal epithelial cells of the Caco-2 line; assay: Iron fixation at the cellular level with added chemical donor of NO (Example 2); conditions: SNAP between 0 and 1 μM added to tubes 2 (Lf-^59Fe) and 4 (Lf-^59Fe + ^59Fe) of Table II
Method: (§1) Intestinal epithelial cells of the Caco-2 line derived from a colon cancer were incubated in a proportion of 2×10^6 cells per ml in an RPMI 1640 medium buffered at pH 7.4, in the presence of 25 mmolar of Hepes, containing 15% (v/v) of fetal calf serum, 2 mmol/l of L-glutamine and 1% (v/v) of a solution of streptomycin-penicillin, sold by the company Gibco.
Tubes of intestinal epithelial cell cultures were prepared and cultured under the same conditions as those described above in Example 1.
Iron fixation at the cellular level was then initiated by adding Lf-^59Fe and/or labeled iron.
One of the cell culture tubes received none of the constituents, so as to serve as a control.
The distribution of the constituents, and also the concentrations at which they were used, appear in Table II below:
The culture tubes then received SNAP in amounts ranging between 0 and 1 μM, and the cellular fixation of radiolabeled iron were then measured using a device for measuring the radioactivity.

[2] = tested on: Intestinal epithelial cells of the Caco-2 line; assay: Degree of iron fixation at the cellular level as a function of concentrations (Example 3); conditions: Caco-2 cells, after 72 hours of incubation; tube contents per Table III (mg/ml); Control = 1
Method: as §1
Twelve tubes of epithelial cell cultures were prepared according to the conditions described above in Example 1.
Iron fixation at the cellular level was then initiated by adding Lf-^59Fe and/or labeled iron and/or L-arginine.
One of the cell culture tubes received none of these three constituents, so as to act as a control.
The distribution of the constituents, and also the concentrations at which they were used, appear in Table III below:
The degree of cellular fixation of iron was measured after 72 hours of incubation using a device for measuring the radioactivity.

[3] = tested on: Intestinal epithelial cells of the Caco-2 line; assay: Iron fixation at the cellular level with added inhibitor of the L-arginine pathway (Example 1, FIG. 2); conditions: 1 mM added to the medium of tubes 1, 2, 4 and 8 of Table I; virtually returned to the degree without L-arginine (tube 2)
Method: as §1
The cells were then incubated for a period of 16 hours in Eppendorf tubes kept stirring for the final 2 hours of the culture period. Throughout the incubation period, the amount of cellular iron was measured by centrifugation pellet of the cells a first time after 30 minutes (t=0.5), then after one hour (t=1), and then every hour (t=2 to t=16), using a device for measuring the radioactivity.

Question: `CC(=O)N[C@H](C(=O)O)C(C)(C)SN=O` (racemic) [SNAP, S-nitroso-N-acetylpenicillamine] was tested. Which “Degree of iron fixation in the epithelial cells after addition of SNAP” value [1] did it give?
Answer: Its value is “increase the degree of iron fixation in the epithelial cells”.

Question: For `N=C(N)NCCC[C@H](N)C(=O)O` [Cell culture tube 8, L-arginine, reference compound], which “Degree of iron fixation in the cells (cpm ^59Fe)” value [2] is on record?
Answer: Its value is 1 cpm ^59Fe.

Question: Which “Degree of iron fixation at the cellular level after addition of L-NAME” value [3] does the source give for `COC(=O)[C@@H](N)CCCNC(=N)N[N+](=O)[O-]` [L-NAME, N^ω-nitro-L-arginine methyl ester] here?
Answer: Its value is “very large decrease in the degree of iron fixation at the cellular level”.
